Measured values as given in the NIST ThermoML archive (doi:10.1021/je034255e).

How the values were obtained:
[1] = excess molar enthalpy (molar enthalpy of mixing); xn = mol fraction of the nth substance listed; settings: 413.15 K, 1620 kPa, Liquid, Flow calorimetry
[2] = Liquid; for mass density: 101.33 kPa

CCC(N)=O [propanamide] + CCCCCCCCCCC
[1]
Settings | excess molar enthalpy [kcal/mol]
x2 = 0.0092 | 0.0332
x2 = 0.0284 | 0.0576
x2 = 0.049 | 0.0607
x2 = 0.1074 | 0.0669
x2 = 0.7646 | 0.133
x2 = 0.9337 | 0.15
x2 = 0.9661 | 0.154

CCC(N)=O [propanamide]
[2]
Settings | mass density [kg/m3] | vapor or sublimation pressure [kPa]
355.65 K | 963.2 | –
358.15 K | 961.2 | –
363.15 K | 957.2 | –
375.45 K | – | 0.97
384.15 K | – | 1.53
394.15 K | – | 2.52
403.65 K | – | 4.02
414.05 K | – | 6.4
427.65 K | – | 11.22
443.85 K | – | 21.16
455.55 K | – | 31.04
462.95 K | – | 40.87
469.05 K | – | 50.69
475.85 K | – | 60.86
